Legend:
[1] = target: T1, Dihydrofolate reductase (Pneumocystis carinii, UniProt P16184)
T1 sequence (P16184 whole entry): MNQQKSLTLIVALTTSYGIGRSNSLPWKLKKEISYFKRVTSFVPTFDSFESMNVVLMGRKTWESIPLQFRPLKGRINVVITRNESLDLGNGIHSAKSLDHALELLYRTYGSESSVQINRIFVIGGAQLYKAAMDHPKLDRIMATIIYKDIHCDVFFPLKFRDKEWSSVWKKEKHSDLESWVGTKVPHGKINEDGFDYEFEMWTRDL
Description: Inhibition of Pneumocystis carinii dihydrofolate reductase

[2] = target: T2, Dihydrofolate reductase (Rattus norvegicus, UniProt Q920D2)
T2 sequence (Q920D2 whole entry): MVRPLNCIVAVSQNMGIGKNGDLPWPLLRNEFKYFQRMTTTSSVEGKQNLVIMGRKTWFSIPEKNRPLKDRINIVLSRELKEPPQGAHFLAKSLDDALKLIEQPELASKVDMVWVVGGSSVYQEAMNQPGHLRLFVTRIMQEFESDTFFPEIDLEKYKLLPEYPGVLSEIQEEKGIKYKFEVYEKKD
Description: Inhibition of rat liver dihydrofolate reductase

[3] = tested on: Toxoplasma gondii; assay: Inhibitory concentration of Toxoplasma gondii cells in human embryonic lung cells with minimum essential medium; inactive; type: functional, organism-based
[4] = tested on: ACHN; assay: Inhibitory concentration required to decrease cell viability in cell growth culture against kidney cells ACHN; type: functional, cell-based; conditions: Homo sapiens
[5] = Inhibitory concentration required to decrease cell viability in cell growth culture against melanoma SK5 MeI; type: functional; conditions: Homo sapiens
[6] = tested on: CCRF-CEM; assay: Inhibitory concentration required to decrease cell viability in cell growth culture against leukemia cells CCRF-CEM; type: functional, cell-based; conditions: Homo sapiens
[7] = tested on: MCF7S; assay: Inhibitory concentration required to decrease cell viability in cell growth culture against breast carcinoma cells MCF-7; type: functional, cell-based; conditions: Homo sapiens
[8] = tested on: HCT-116; assay: Inhibitory concentration required to decrease cell viability in cell growth culture against colon carcinoma cells HCT116; type: functional, cell-based; conditions: Homo sapiens
[9] = target: T3, Bifunctional dihydrofolate reductase-thymidylate synthase (Toxoplasma gondii, UniProt Q07422); assay: Inhibition of Toxoplasma gondii dihydrofolate reductase
T3 sequence (Q07422 whole entry): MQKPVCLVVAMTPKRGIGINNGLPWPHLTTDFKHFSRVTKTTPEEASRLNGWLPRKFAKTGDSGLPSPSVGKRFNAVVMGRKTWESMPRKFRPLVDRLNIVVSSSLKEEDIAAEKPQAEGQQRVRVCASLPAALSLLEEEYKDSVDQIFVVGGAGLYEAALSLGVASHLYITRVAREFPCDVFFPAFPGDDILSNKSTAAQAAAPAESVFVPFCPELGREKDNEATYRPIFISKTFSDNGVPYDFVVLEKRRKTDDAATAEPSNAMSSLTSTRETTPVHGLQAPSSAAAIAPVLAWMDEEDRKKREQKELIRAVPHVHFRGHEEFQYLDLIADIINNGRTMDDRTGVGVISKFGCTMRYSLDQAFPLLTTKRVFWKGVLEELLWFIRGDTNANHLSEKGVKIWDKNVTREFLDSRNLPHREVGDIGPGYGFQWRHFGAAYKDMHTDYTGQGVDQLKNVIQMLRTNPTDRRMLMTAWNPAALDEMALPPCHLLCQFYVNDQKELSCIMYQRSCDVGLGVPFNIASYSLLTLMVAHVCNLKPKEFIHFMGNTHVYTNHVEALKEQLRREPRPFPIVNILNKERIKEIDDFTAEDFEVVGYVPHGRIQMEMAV

[10] = target: T2, Dihydrofolate reductase; assay: Inhibitory concentration against rat liver dihydrofolate reductases
[11] = tested on: Pneumocystis carinii; assay: Inhibitory concentration against Pneumocystis carinii cells in human embryonic lung fibrobalstic cell culture with MEM at 1 ug/mL; type: functional, organism-based
[12] = tested on: Toxoplasma gondii; assay: Inhibitory concentration of Toxoplasma gondii cells in human embryonic lung cells with minimum essential medium; type: functional, organism-based
[13] = target: T4, Dihydrofolate reductase (Lactobacillus casei, UniProt P00381); assay: Inhibitory concentration against Lactobacillus casei dihydrofolate reductase; design: species or system Lacticaseibacillus casei
T4 sequence (P00381 whole entry): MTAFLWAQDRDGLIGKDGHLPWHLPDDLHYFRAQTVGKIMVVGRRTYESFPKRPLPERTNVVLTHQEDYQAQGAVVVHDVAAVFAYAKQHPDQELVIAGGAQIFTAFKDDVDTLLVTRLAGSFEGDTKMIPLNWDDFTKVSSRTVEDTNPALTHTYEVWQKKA

[14] = tested on: Pneumocystis carinii; assay: (§1) Inhibitory concentration against Pneumocystis carinii cells in human embryonic lung fibrobalstic cell culture with MEM at 10 ug/mL; type: functional, organism-based
[15] = tested on: Pneumocystis carinii; assay: as §1
[16] = target: T4, Dihydrofolate reductase; assay: (§2) Inhibitory concentration against Lactobacillus casei; design: species or system Lacticaseibacillus casei
[17] = tested on: Pneumocystis carinii; assay: microbe, parasite or virus in culture
Description: Inhibitory concentration against Pneumocystis carinii cells in human embryonic lung fibrobalstic cell culture with MEM at 250 ug/mL

[18] = tested on: Pneumocystis carinii; assay: Inhibitory concentration against Pneumocystis carinii cells in human embryonic lung fibrobalstic cell culture with MEM at 50 ug/mL
[19] = tested on: Lacticaseibacillus casei; assay: as §2; type: functional, organism-based

Compound | IC50 [1] [nM] | IC50 [2] [nM] | IC50 [4] [nM] | IC50 [5] [nM] | IC50 [6] [nM] | IC50 [7] [nM] | IC50 [8] [nM] | IC50 [9] [nM] | also measured
COc1cc(N(C=O)CC2=CNc3nc(N)nc(N)c3C2C)cc(OC)c1OC (stereo unspecified) | > 2600 | > 2600 | – | – | – | – | – | – | –
COc1cc(N(C=O)Cc2cnc3nc(N)nc(N)c3c2C)cc(OC)c1OC | 550 | 110 | > 112000 | > 112000 | 610 | > 100000 | > 112000 | 13 | IC50 [3]: Not Active
Cc1c(CN(C=O)c2ccc(Cl)c(Cl)c2)cnc2nc(N)nc(N)c12 | 510 | – | 91400 | 25100 | 210 | 106000 | 16000 | 83 | IC50 [10]: 140 nM
COc1cc(N(C=O)CC2CNc3nc(N)nc(N)c3C2C)cc(OC)c1OC (stereo unspecified) | > 1200 | > 1200 | – | – | – | – | – | – | –
COc1cc(NCc2cnc3nc(N)nc(N)c3c2C)cc(OC)c1OC.O=C(O)[C@H]1O[C@H](O)[C@H](O)[C@@H](O)[C@@H]1O | – | – | – | – | – | – | – | – | % inhibition [11]: 2%
COc1cc(NCc2cnc3nc(N)nc(N)c3c2C)cc(OC)c1OC | – | 2.1 | > 100000 | > 100000 | 130 | > 100000 | 71700 | – | IC50 [12]: 23000 nM; % inhibition [11]: 56%; IC50 [13]: 22 nM; % inhibition [14]: 77%
COc1cc(NCc2cnc3nc(N)nc(N)c3c2C)cc(OC)c1OC.O=C(O)[C@H]1OC(O)[C@H](O)[C@@H](O)[C@@H]1O | – | – | – | – | – | – | – | – | % inhibition [15]: 57%
Cc1c(CN(C=O)c2cc(Cl)c(Cl)c(Cl)c2)cnc2nc(N)nc(N)c12 | 520 | 250 | – | – | 30 | – | – | 94 | –
Cc1c(CNc2cc(Cl)c(Cl)c(Cl)c2)cnc2nc(N)nc(N)c12 | 63 | 33 | – | – | 200 | > 100000 | – | 12 | –
COc1cc(NCC2CNc3nc(N)nc(N)c3C2C)cc(OC)c1OC (stereo unspecified) | > 3700 | 3700 | – | – | – | – | – | – | –
COc1cc(N(C)Cc2cnc3nc(N)nc(N)c3c2C)cc(OC)c1OC | – | 7.6 | > 100000 | > 100000 | 20 | > 100000 | 37900 | – | IC50 [12]: 4700 nM; % inhibition [11]: 65%; IC50 [13]: 200 nM; % inhibition [14]: 74%
Cc1c(CNc2ccc(Cl)c(Cl)c2)cnc2nc(N)nc(N)c12 | 320 | 53 | 22900 | 7730 | 100 | 94500 | 28600 | 28 | IC50 [16]: 860 nM
Cc1c(CN(C)c2cc(Cl)c(Cl)c(Cl)c2)cnc2nc(N)nc(N)c12 | 105 | 36.3 | – | – | 200 | 18200 | – | 38.1 | IC50 [16]: 36 nM
Cc1c(CN(C)c2ccc(Cl)c(Cl)c2)cnc2nc(N)nc(N)c12 | 100 | 42 | 70200 | 21200 | 10 | 9600 | 5300 | 27 | IC50 [16]: 960 nM
COc1cc(Cc2cnc(N)nc2N)cc(OC)c1OC.Cc1cc(NS(=O)(=O)c2ccc(N)cc2)no1 [CO-TRIMOXAZOLE] | – | – | – | – | – | – | – | – | inhibition at 250 µg/mL [17]: 84%
COc1cc(Cc2cnc(N)nc2N)cc(OC)c1OC [TRIMETHOPRIM] | – | – | – | – | – | – | – | – | inhibition at 50 µg/mL [18]: 84%
COc1cc(NCc2ccc3nc(N)nc(N)c3c2C)cc(OC)c1OC [TRIMETREXATE] | – | – | – | – | – | – | – | – | IC50 [19]: 27 nM

— ChEMBL document CHEMBL1126886, “Synthesis of 5-methyl-5-deaza nonclassical antifolates as inhibitors of dihydrofolate reductases and as potential antipneumocystis, antitoxoplasma, and antitumor agents” (J Med Chem, 1993)
